Key:
Assay type in all cases: cell-based
[1] = target: T1, human prostanoid EP2 receptor (Homo sapiens, UniProt P43116); assay: FLIPR Ca2+ signaling PG antagonist assay, EP2 stable cell line; settings: HEK-293 EBNA cells, human recombinant EP2 with chimeric Gqs; standard agonist PGE2
T1 construct: expressed in transfected cells
Procedure, shortened: (§1)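 HEK-293 EBNA stable lines; EP2 co-expressed with chimeric Gqs, EP1/IP/TP with no exogenous G protein. Fluo-4AM-loaded cells pretreated 4.5 min at 37 °C with compound (0.1–30 μM; TP 0.067–1 μM), then standard agonist (PGE2, cicaprost, U-46619) 10^−11–10^−5 M (TP 10^−12–10^−6 M); peak fluorescence read 3.5 min, nonlinear regression.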

[2] = target: T2, human prostanoid EP3 receptor (Homo sapiens, UniProt P43115); assay: FLIPR Ca2+ signaling PG antagonist assay, EP3 stable cell line; settings: HEK-293 EBNA cells, human recombinant EP3 with chimeric Gqi; standard agonist PGE2
T2 construct: expressed in transfected cells
T2 sequence (P43115 1-390): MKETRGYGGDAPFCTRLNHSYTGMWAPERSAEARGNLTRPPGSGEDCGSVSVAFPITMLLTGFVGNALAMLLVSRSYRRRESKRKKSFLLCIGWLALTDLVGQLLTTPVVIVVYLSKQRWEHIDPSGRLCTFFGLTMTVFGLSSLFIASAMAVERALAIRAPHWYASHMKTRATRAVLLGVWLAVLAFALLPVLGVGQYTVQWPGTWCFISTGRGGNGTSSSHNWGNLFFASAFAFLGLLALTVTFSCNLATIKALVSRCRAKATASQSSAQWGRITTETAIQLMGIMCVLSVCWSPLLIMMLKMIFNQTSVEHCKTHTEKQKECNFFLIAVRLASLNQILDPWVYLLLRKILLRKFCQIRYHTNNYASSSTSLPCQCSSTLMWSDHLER
Procedure, shortened: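 Stable HEK-293 EBNA lines (DP1 with chimeric Gqs, EP3 with Gqi, EP1 and FP without exogenous G protein) were Fluo-4AM-loaded and pretreated 4.5 min at 37 °C with compound (0.1–30 μM). Agonist (BW 245C for DP1, PGE2 for EP1/EP3, 17-phenyl-PGF2α for FP) was then added at 10^−11–10^−5 M. Peak Ca2+ fluorescence was taken relative to agonist at 10^−6 M.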

[3] = target: T3, human prostanoid EP4 receptor (Homo sapiens, UniProt P35408); assay: FLIPR Ca2+ signaling PG antagonist assay, EP4 stable cell line; settings: HEK-293 EBNA cells, human recombinant EP4 with chimeric Gqs; standard agonist PGE2
T3 construct: expressed in transfected cells
Procedure, shortened: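 Antagonism at human EP4 was assessed as a Ca^2+ signal in stable HEK-293 EBNA transfectants carrying chimeric Gqs. Dye-loaded cells in HBSS-HEPES at 37° C received test compound, then a 7-point 10-fold PGE2 series. Fluorescence was excited at 470-495 nm and read at 515-575 nm for 3.5 minutes, with each condition run in triplicate and buffer used as the negative control.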

[4] = target: T4, human prostanoid IP receptor (Homo sapiens, UniProt P43119); assay: FLIPR Ca2+ signaling PG antagonist assay, IP stable cell line; settings: HEK-293 EBNA cells, human recombinant IP, no exogenous G-protein; standard agonist Cicaprost
T4 construct: expressed in transfected cells
Procedure, shortened: as §1

[5] = target: T5, human prostanoid TP receptor (Homo sapiens, UniProt P21731); assay: FLIPR Ca2+ signaling PG antagonist assay, TP stable cell line; settings: HEK-293 EBNA cells, human recombinant TP, no exogenous G-protein; standard agonist U-46619
T5 construct: expressed in transfected cells
T5 sequence (P21731 1-343): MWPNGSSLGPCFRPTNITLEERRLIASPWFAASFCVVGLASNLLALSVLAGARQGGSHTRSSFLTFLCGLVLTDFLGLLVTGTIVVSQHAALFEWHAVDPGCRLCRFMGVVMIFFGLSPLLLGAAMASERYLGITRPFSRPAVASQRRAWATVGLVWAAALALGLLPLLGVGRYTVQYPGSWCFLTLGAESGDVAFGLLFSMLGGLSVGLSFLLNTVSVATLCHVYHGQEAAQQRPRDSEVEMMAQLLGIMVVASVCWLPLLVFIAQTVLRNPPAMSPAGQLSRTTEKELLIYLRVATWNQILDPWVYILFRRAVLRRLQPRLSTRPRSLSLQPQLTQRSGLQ
Procedure, shortened: as §1

T1 sequence (P43116 whole entry): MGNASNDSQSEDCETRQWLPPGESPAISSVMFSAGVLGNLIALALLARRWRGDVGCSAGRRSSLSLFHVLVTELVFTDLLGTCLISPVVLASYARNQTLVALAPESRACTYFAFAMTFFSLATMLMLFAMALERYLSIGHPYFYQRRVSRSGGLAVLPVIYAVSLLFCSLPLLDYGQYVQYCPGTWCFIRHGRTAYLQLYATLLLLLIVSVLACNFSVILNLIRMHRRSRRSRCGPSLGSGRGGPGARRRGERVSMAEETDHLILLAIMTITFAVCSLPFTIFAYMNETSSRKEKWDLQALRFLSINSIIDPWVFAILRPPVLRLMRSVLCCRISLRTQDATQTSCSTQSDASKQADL
T4 sequence (P43119 whole entry): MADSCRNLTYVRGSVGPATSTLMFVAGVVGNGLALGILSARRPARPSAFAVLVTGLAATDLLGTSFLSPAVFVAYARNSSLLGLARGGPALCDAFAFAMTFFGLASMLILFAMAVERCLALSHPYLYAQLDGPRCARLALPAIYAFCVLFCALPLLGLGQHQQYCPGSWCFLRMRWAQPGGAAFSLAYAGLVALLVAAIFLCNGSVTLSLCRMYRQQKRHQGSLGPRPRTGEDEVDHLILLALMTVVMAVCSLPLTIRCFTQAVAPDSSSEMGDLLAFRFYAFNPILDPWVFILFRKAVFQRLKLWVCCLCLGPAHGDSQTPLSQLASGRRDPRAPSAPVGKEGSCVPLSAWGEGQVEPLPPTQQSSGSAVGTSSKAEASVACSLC
T3 sequence (P35408 whole entry): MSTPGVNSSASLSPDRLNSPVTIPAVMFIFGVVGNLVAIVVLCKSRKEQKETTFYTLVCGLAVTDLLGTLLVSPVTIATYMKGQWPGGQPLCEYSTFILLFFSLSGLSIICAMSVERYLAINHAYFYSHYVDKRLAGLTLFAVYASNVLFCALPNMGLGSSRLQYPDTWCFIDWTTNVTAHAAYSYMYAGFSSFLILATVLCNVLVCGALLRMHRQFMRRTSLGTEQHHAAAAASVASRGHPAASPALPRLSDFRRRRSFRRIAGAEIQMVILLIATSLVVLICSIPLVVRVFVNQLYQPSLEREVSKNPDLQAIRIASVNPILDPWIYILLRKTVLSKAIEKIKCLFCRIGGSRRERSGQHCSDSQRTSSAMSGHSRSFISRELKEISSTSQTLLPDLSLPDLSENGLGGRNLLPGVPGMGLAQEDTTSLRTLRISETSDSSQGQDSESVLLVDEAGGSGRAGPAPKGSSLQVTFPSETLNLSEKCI

SMILES	Kb [1]	Kb [2]	Kb [3]	Kb [4]	Kb [5]
CCC(CC)COc1ccc(Cl)cc1Cn1nc(C)c2cc(C(=O)O)cnc21 [Example 60, 1-[5-Chloro-2-(2-Ethyl-Butoxy)-Benzyl]-3-Methyl-1H-Pyrazolo[3,4-B]Pyridine-5-Carboxylic Acid]	7.5 µM	5.1 µM	0.15 µM	0.63 µM	0.41 µM
Cc1nn(Cc2cc(Cl)ccc2OCC(C)C)c2ncc(C(=O)O)cc12 [Example 61, 1-(5-Chloro-2-Isobutoxy-Benzyl)-3-Methyl-1H-Pyrazolo[3,4-B]Pyridine-5-Carboxylic Acid]	≥ 10 µM	≥ 10 µM	0.76 µM	1.75 µM	0.3 µM
CCC(CC)COc1ccc(Cl)cc1Cn1ncc2cc(C(N)=O)ncc21 [Example 62, 1-[5-Chloro-2-(2-Ethyl-Butoxy)-Benzyl]-1H-Pyrazolo[3,4-C]Pyridine-5-Carboxylic Acid Amide]	≥ 10 µM	≥ 10 µM	≥ 10 µM	≥ 10 µM	≥ 10 µM
CCC(CC)COc1ccc(Cl)cc1Cn1ncc2cc(C(=O)O)ncc21 [Example 63, 1-[5-Chloro-2-(2-Ethyl-Butoxy)-Benzyl]-1H-Pyrazolo[3,4-C]Pyridine-5-Carboxylic Acid]	≥ 10 µM	7.4 µM	2.5 µM	5 µM	0.18 µM
CCc1nn(Cc2cc(Br)ccc2OCC(C)C)c2ccc(C(=O)O)cc12 [Example 64, 1-(5-Bromo-2-Isobutoxy-Benzyl)-3-Ethyl-1H-Indazole-5-Carboxylic Acid]	3.1 µM	2.9 µM	0.05 µM	0.7 µM	0.008 µM
CCc1nn(Cc2cc(Br)ccc2OCC(CC)CC)c2ccc(C(=O)O)cc12 [Example 65, 1-[5-Bromo-2-(2-Ethyl-Butoxy)-Benzyl]-3-Ethyl-1H-Indazole-5-Carboxylic Acid]	6.5 µM	4.7 µM	0.055 µM	0.88 µM	0.052 µM
Cc1cc2cc(C(=O)O)ccc2n1Cc1cc(Br)ccc1OCC(C)C [Example 66, 1-(5-Bromo-2-Isobutoxy-Benzyl)-2-Methyl-1H-Indole-5-Carboxylic Acid]	≥ 10 µM	≥ 10 µM	1.4 µM	4.6 µM	0.32 µM
CC(C)COc1ccc(Br)cc1Cn1ccc2cc(C(=O)O)ccc21 [Example 67, 1-(5-Bromo-2-Isobutoxy-Benzyl)-1H-Indole-5-Carboxylic Acid]	≥ 10 µM	≥ 10 µM	0.34 µM	≥ 10 µM	0.16 µM
CCC(CC)COc1ccc(Br)cc1Cn1c(C)cc2cc(C(=O)O)ccc21 [Example 68, 1-[5-Bromo-2-(2-Ethyl-Butoxy)-Benzyl]-2-Methyl-1H-Indole-5-Carboxylic Acid]	≥ 10 µM	≥ 10 µM	9.7 µM	6.6 µM	≥ 10 µM
CCC(CC)COc1ccc(Br)cc1Cn1ccc2cc(C(=O)O)ccc21 [Example 69, 1-[5-Bromo-2-(2-Ethyl-Butoxy)-Benzyl]-1H-Indole-5-Carboxylic Acid]	≥ 10 µM	7.9 µM	0.13 µM	3 µM	0.55 µM
CCC(CC)COc1ccc(Br)cc1Cn1ccc2ccc(C(=O)O)cc21 [Example 70, 1-[5-Bromo-2-(2-Ethyl-Butoxy)-Benzyl]-1H-Indole-6-Carboxylic Acid]	≥ 10 µM	≥ 10 µM	6 µM	≥ 10 µM	0.32 µM
CC(C)COc1ccc(OC(F)(F)F)cc1Cn1ccc2cc(C(=O)O)ccc21 [Example 71, 1-(2-Isobutoxy-5-Trifluoromethoxy-Benzyl)-1H-Indole-5-Carboxylic Acid]	≥ 10 µM	≥ 10 µM	0.28 µM	≥ 10 µM	0.6 µM
